Consider 45 compounds from US8546579B2, “Bicycloheteroaryl compounds as P2X7 modulators and uses thereof” (Evotec (US) Inc., priority 2006, dated 2013).

Each structure is given as a SMILES string. Like-named read-outs stand apart in the source and are kept apart here. Some results are limits rather than exact numbers.

This assay deals with T1, P2X7 receptor (Homo sapiens, UniProt Q99572).
T1 construct: host or cells: THP-1 cells differentiated with LPS and IFN-γ
T1 sequence (Q99572 1-595): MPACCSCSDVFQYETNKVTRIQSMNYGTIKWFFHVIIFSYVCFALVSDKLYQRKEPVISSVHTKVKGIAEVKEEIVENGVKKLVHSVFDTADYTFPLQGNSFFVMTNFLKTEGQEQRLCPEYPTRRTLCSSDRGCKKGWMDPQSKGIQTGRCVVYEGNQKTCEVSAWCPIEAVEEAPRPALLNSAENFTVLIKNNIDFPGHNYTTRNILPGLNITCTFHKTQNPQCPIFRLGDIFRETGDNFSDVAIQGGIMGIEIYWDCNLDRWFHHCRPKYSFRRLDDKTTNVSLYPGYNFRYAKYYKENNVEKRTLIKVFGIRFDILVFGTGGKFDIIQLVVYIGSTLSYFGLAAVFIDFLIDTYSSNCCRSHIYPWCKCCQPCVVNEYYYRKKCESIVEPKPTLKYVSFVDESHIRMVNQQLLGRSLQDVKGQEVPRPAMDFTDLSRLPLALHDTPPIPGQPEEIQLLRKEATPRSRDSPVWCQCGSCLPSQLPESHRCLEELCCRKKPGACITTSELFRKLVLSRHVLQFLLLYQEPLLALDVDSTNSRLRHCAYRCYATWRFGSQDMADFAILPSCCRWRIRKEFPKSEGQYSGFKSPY
Kind of assay: IL-1β release assay in differentiated THP-1 cells stimulated with BzATP (Example 9). The class given is cell-based. Details: inhibition: dose or concentration left out as unconfirmed. The conditions noted are these: for inhibition: THP-1, read-out: IL-1β % Inhib.; for inhibition at 0.3 µM: 0.3 μM compound, read-out: IL-1β % Inhib. @ 0.3 μM; for inhibition at 0.3 µM / inhibition at 0.1 µM: differentiated THP-1 cells, BzATP 250 uM; for IC50: THP-1 cells, BzATP-stimulated IL-1β release, four parameter logistic fit; for inhibition at 0.1 µM: 0.1 μM compound. The method, then: THP-1 cells (ATCC Cat # 285-IF-100) are plated in 96 well plates at a concentration of 200,000 cells per well and allowed to differentiate in RPMI-1640 media (ATCC Cat # 30-2001) containing 10% FBS, 100 IU/mL penicillin, 100 ug/mL streptomycin, 100 ng/mL LPS and 100 ng/mL IFN-γ for 16 hours. Following differentiation, the cells are treated for an additional 2 hours in RPMI-1640 media containing 100 IU/mL penicillin, 100 ug/mL streptomycin and fresh LPS at 100 ng/mL. The cells are then pretreated for 30 minutes with the compound of interest at the appropriate concentration in RPMI media containing 100 IU/mL penicillin, 100 ug/mL streptomycin. Following the pretreatment 2′,3′-O-(4-benzoylbenzoyl)-adenosine 5′-triphosphate (Sigma Aldrich Cat # B6396) is added to a final concentration of 250 uM and the cells are incubated for an additional 45 minutes. 30 uL of cell supernatant is then collected and IL-1β levels determined via ELISA (R&D systems Cat. # HSLB50) according to manufacturer's recommendations using the Tecan Safire plate reader. Background adjusted IL-1β levels of drug treated and non-treated cells are used to calculate the percent inhibition.
The compounds set forth in Table 1 were tested for activity in a cellular model as described herein. Specifically, cells were pretreated with differing amounts of the compound under test and released IL-1β determined as in Example 9, above. Measurements were made and IC50 values, presented in Table 2, below, were determined by fitting the data to a four parameter logistic equation using GraphPad Prism software (GraphPad Software, Inc). The equation may be expressed by the following formula: Y=Bottom+(Top−Bottom)/(1+10^((Log EC50−X)*HillSlope)) Where X is the logarithm of concentration, Y is the response and Y starts at Bottom and goes to Top with a sigmoid shape.

Setting [1] is: "*" class symbols, read-out: IL-1β % Inhib. ("*" symbols: at 0.1 μM).
Where [2] appears, read: symbols * to ****, read-out: IL-1β % Inhib. (asterisk symbols: at 0.1 μM).

On to `O=C1CCCN1CCCn1ccc2c(NC(=O)[C@@]34C[C@@H]5C[C@@H](C[C@@H]3C5)C4)cccc2c1=O` [Compound 1532], for which the inhibition lay within 0 to 25%.

Regarding `O=C(Cc1ccc2c(c1)OCO2)Nc1cccc2c(=O)n(Cc3ccc(OC(F)(F)F)cc3)ccc12` [Compound 1588], the inhibition fell in the range of 0 to 25%. Regarding `CS(=O)(=O)CCn1ccc2c(NC(=O)Cc3ccc(Cl)c(C(F)(F)F)c3)cccc2c1=O` [Compound 1630, 2-(4-Chloro-3-trifluoromethyl-phenyl)-N-[2-(2-methanesulfonyl-ethyl)-1-oxo-1,2-dihydro-isoquinolin-5-yl]acetamide], the IC50 came out at 108 nM. Further, for the setting “"+" class symbols”, the inhibition at 0.3 µM was no less than 76%. Compound `COCCn1ccc2c(NC(=O)Cc3ccc(Cl)c(C(F)(F)F)c3)cccc2c1=O` [Compound 1623, 2-(4-Chloro-3-trifluoromethyl-phenyl)-N-[2-(2-methoxy-ethyl)-1-oxo-1,2-dihydro-isoquinolin-5-yl]-acetamide] gave an IC50 of 9.24 nM. Further, the inhibition at 0.3 µM ("+" class symbols) was no less than 76%. For the compound `COc1c(C)cc(C(=O)Nc2cccc3c(=O)n(CC(C)(C)C)ccc23)cc1C` [Compound 1267], under “symbols + to ++++”, the inhibition at 0.3 µM lay within 0 to 25%.

For the compound `O=C(CC1CC2CC[C@H]1C2)Nc1cccc2c(=O)n(Cc3ccc(OC(F)(F)F)cc3)ccc12` (stereo partly drawn) [Compound 1593], the inhibition is 0 to 25%.

`COc1c(C)cc(C(=O)Nc2cccc3c(=O)n(CCCN4CCCC4=O)ccc23)cc1C` [Compound 1529]: the inhibition is 0 to 25%. Consider `CC(C(=O)Nc1cccc2c(=O)n(CCCN3CCCC3=O)ccc12)c1ccccc1` (stereo not drawn) [Compound 1517], for which the inhibition was in the range of 0 to 25%. For the compound `Cc1cccc(C(=O)Nc2cccc3c(=O)n(CCCN4CCCC4=O)ccc23)c1C` [Compound 1508], the inhibition lay in the range of 0 to 25%. As to `O=C(Cc1ccccc1Cl)Nc1cccc2c(=O)n(Cc3ccc(OC(F)(F)F)cc3)ccc12` [Compound 1576], the inhibition is 0 to 25%. For the compound `CC(C)(C)c1ccc(C(=O)Nc2cccc3c(=O)n(CCCN4CCCC4=O)ccc23)cc1` [Compound 1516], the inhibition lay within 0 to 25%. As to `CC(=O)OCCn1ccc2c(NC(=O)Cc3ccc(S(C)(=O)=O)cc3)cccc2c1=O` [Compound 1384], the IC50 was greater than 1000 nM. Further, the inhibition at 0.3 µM (symbols + to ++++) is 0 to 25%. `O=C(Nc1cccc2c(=O)n(CCCN3CCCC3=O)ccc12)c1cc2ccccc2o1` [Compound 1526]: the inhibition fell in the range of 0 to 25%. Take `COc1ccc(CC(=O)Nc2cccc3c(=O)n(CC4CCN(C)CC4)ccc23)cc1` [Compound 1474]: the inhibition was 0 to 25%. As to `CN(C)CCn1ccc2c(NC(=O)Cc3ccc(Cl)cc3Cl)cccc2c1=O` [Compound 1387], the IC50 amounted to 146 nM. Also, the inhibition at 0.3 µM (symbols + to ++++) is 51 to 75%. Turning to `O=C(Nc1cccc2c(=O)n(Cc3ccc(OC(F)(F)F)cc3)ccc12)C1C[C@@H]2CC[C@H]1C2` (stereo partly drawn) [Compound 1600], under setting [1], the inhibition at 0.1 µM was in the range of 0 to 25%. In the case of `Cc1cc(C(=O)Nc2cccc3c(=O)n(Cc4ccc(OC(F)(F)F)cc4)ccc23)ccc1Cl` [Compound 1559], the inhibition fell in the range of 0 to 25%. On to `O=C(Nc1cccc2c(=O)n(CC3CCOCC3)ccc12)c1ccccc1Cl` [Compound 1082], for which the inhibition at 0.3 µM ('+' class symbols) fell in the range of 26 to 50%. On to `Cc1ccc(Cl)cc1C(=O)Nc1cccc2c(=O)n(CC3CCN(C)CC3)ccc12` [Compound 1487], for which the inhibition was in the range of 0 to 25%. The same measure, in the same setting: for `COc1cccc(CCC(=O)Nc2cccc3c(=O)n(CCCN4CCCC4=O)ccc23)c1` [Compound 1497] the value was 26 to 50%. Regarding `Cc1cccc(C(=O)Nc2cccc3c(=O)n(CCN4CCOCC4)ccc23)c1C` [Compound 1192], the inhibition at 0.3 µM ('+' class symbols) fell in the range of 26 to 50%. Consider `O=C(Nc1cccc2c(=O)n(CC3CCOCC3)ccc12)c1ccc(Cl)cc1Cl` [Compound 1083], for which the inhibition at 0.3 µM ('+' class symbols) was in the range of 0 to 25%. Still for that read-out and setting: for `COc1ccc(CC(=O)Nc2cccc3c(=O)n(CC4CCOCC4)ccc23)cc1` [Compound 1105] the value was 0 to 25%. Take `Cc1cc(Cl)ccc1C(=O)Nc1cccc2c(=O)n(Cc3ccc(OC(F)(F)F)cc3)ccc12` [Compound 1592]: the inhibition lay in the range of 0 to 25%. As for `COc1cc(OC)cc(C(=O)Nc2cccc3c(=O)n(Cc4ccc(OC(F)(F)F)cc4)ccc23)c1` [Compound 1566], the inhibition was 26 to 50%. On the same count and under the same terms, for `CN1CCC(Cn2ccc3c(NC(=O)C4C[C@@H]5CC[C@H]4C5)cccc3c2=O)CC1` (stereo partly drawn) [Compound 1483] the value was 26 to 50%. For `COc1c(C)cc(C(=O)Nc2cccc3c(=O)n(CC4CCOCC4)ccc23)cc1C` [Compound 1112], under “'+' class symbols”, the inhibition at 0.3 µM was in the range of 0 to 25%.

Consider `Cc1ccc(CCC(=O)Nc2cccc3c(=O)n(CC4CCOCC4)ccc23)c(C)c1` [Compound 1134], for which, for the setting “'+' class symbols”, the inhibition at 0.3 µM lay within 0 to 25%.

For the compound `COc1ccc(OC)c(CC(=O)Nc2cccc3c(=O)n(CC4CCOCC4)ccc23)c1` [Compound 1100], the inhibition at 0.3 µM ('+' class symbols) is 0 to 25%. As for `COc1cc(OC)cc(C(=O)Nc2cccc3c(=O)n(C)ccc23)c1` [Compound 1290], the inhibition at 0.1 µM under setting [2] lay within 0 to 25%. In the case of `COc1ccc(OC)c(CC(=O)Nc2cccc3c(=O)n(Cc4ccc(OC(F)(F)F)cc4)ccc23)c1` [Compound 1578], the inhibition was in the range of 0 to 25%. Regarding `CC(C(=O)Nc1cccc2c(=O)n(CC(C)(C)C)ccc12)c1ccccc1` (stereo not drawn) [Compound 1247], the inhibition at 0.1 µM under setting [2] was in the range of 0 to 25%. Regarding `CCOc1ccc(C(=O)Nc2cccc3c(=O)n(CCCN4CCCC4=O)ccc23)cc1` [Compound 1514], the inhibition was 0 to 25%. Take `CN(C)CCn1ccc2c(NC(=O)c3cc(Cl)ccc3Cl)cccc2c1=O` [Compound 1139]: where the note is “'+' class symbols”, the inhibition at 0.3 µM lay in the range of 0 to 25%. Consider `Cc1cccc(C(=O)Nc2cccc3c(=O)n(Cc4cccnc4)ccc23)c1C` [Compound 1345], for which, where the note is “symbols + to ++++”, the inhibition at 0.3 µM fell in the range of 0 to 25%. On to `CC(c1ccccn1)n1ccc2c(NC(=O)Cc3cccc(C(F)(F)F)c3F)cccc2c1=O` (stereo not drawn) [Compound 1633, 2-(2-Fluoro-3-trifluoromethyl-phenyl)-N-[1-oxo-2-(1-pyridin-2-yl-ethyl)-1,2-dihydro-isoquinolin-5-yl]-acetamide], for which the IC50 stood at 25.5 nM. In addition, where the note is “"+" class symbols”, the inhibition at 0.3 µM was no less than 76%. `Cc1ccc(CCC(=O)Nc2cccc3c(=O)n(CC4CCN(C)CC4)ccc23)c(C)c1` [Compound 1491]: the inhibition lay within 0 to 25%. Same read-out and setting: for `Cc1cc(C)c(CC(=O)Nc2cccc3c(=O)n(CCCN4CCCC4=O)ccc23)c(C)c1` [Compound 1498] the value was 0 to 25%. Consider `COCCn1ccc2c(NC(=O)CCc3cccc(C)c3)cccc2c1=O` [Compound 1338], for which the inhibition at 0.3 µM (symbols + to ++++) lay in the range of 0 to 25%.

Take `Cc1c(Cl)cccc1C(=O)Nc1cccc2c(=O)n(Cc3ccc(OC(F)(F)F)cc3)ccc12` [Compound 1598]: the inhibition at 0.1 µM under setting [1] is 26 to 50%.

As for `CCOc1ccc(C(=O)Nc2cccc3c(=O)n(CC4CCOCC4)ccc23)cc1` [Compound 1091], the inhibition at 0.3 µM ('+' class symbols) lay in the range of 0 to 25%. With `COc1ccc(CCC(=O)Nc2cccc3c(=O)n(C)ccc23)cc1` [Compound 1293], the inhibition at 0.3 µM (symbols + to ++++) was 0 to 25%.

The compound `O=C(Cc1cccc(C(F)(F)F)c1F)Nc1cccc2c(=O)n(Cc3ccccn3)ccc12` [Compound 1627] showed an IC50 of 416 nM. Further, the inhibition at 0.3 µM ("+" class symbols) lay within 26 to 50%. `Cc1c(Cl)cccc1C(=O)Nc1cccc2c(=O)n(CCN3CCOCC3)ccc12` [Compound 1227]: the inhibition at 0.3 µM (symbols + to ++++) was 0 to 25%.

Take `COc1ccc(CC(=O)Nc2cccc3c(=O)n(Cc4ccc(OC(F)(F)F)cc4)ccc23)cc1` [Compound 1583]: the inhibition lay within 26 to 50%.
